Measurements from ChEMBL document CHEMBL1125298, “Hypocholesterolemic activity of synthetic and natural tocotrienols” (J Med Chem, 1992).

Columns and labels:
[1] = tested on: HepG2; assay: Compound evaluated for percent inhibition of cholesterol synthesis from [14C]acetate in HepG2 cell; assay type: functional, Homo sapiens; design: concentration or dose not given beside the values
[2] = tested on: HepG2; assay: Compound evaluated for percent inhibition of cholesterol synthesis from HMG-CoA Reductase in HepG2 cell; assay type: functional, Homo sapiens
[3] = organism: Rattus norvegicus; assay: Compound was evaluated for percent inhibition of cholesterol biosynthesis in primary rat hepatocytes at a concentration of 1100 ug/mL (pre-incubated for 45 min); assay type: functional; settings: Hepatocyte
[4] = organism: Rattus norvegicus; assay: Compound was evaluated for percent inhibition of cholesterol biosynthesis in primary rat hepatocytes at a concentration of 550 ug/mL (pre-incubated for 45 min); assay type: functional; settings: Hepatocyte
[5] = organism: Rattus norvegicus; assay: Inhibitory concentration required to inhibit cholesterol biosynthesis in rat hepatocytes; assay type: functional, Hepatocyte
[6] = organism: Rattus norvegicus; assay: Compound was evaluated for percent inhibition of cholesterol biosynthesis in primary rat hepatocytes at a concentration of 2200 ug/mL (pre-incubated for 45 min); assay type: functional; settings: Hepatocyte
[7] = organism: Rattus norvegicus; assay: Compound was evaluated for percent inhibition of cholesterol biosynthesis in primary rat hepatocytes at a concentration of 138 ug/mL (pre-incubated for 45 min); assay type: functional; settings: Hepatocyte
[8] = organism: Rattus norvegicus; assay: Compound was evaluated for percent inhibition of cholesterol biosynthesis in primary rat hepatocytes at a concentration of 275 ug/mL (pre-incubated for 45 min); assay type: functional; settings: Hepatocyte

| SMILES | Inhibition [1] [%] | Inhibition [2] [%] | other results |
| --- | --- | --- | --- |
| CC(C)=CCC/C=C/CCC1(C)CCc2cc(O)c(C)c(C)c2O1 (configuration not stated) | 38 | – | – |
| COCCOCOc1cc2c(c(C)c1C)OC(C)(CC/C=C/CCC=C(C)C)CC2 (configuration not stated) | 19 | – | – |
| Cc1c(O)cc2c(c1C)OC(C)(CCCC(C)CCCC(C)CCCC(C)C)CC2 (configuration not stated) | 3 | 0 | – |
| CC(C)=CCC/C(C)=C/CC/C(C)=C/CC[C@]1(C)CCc2cc(O)ccc2O1 (mixture of isomers) | – | – | inhibition at 1100 µg/mL [3]: 60%; inhibition at 550 µg/mL [4]: 45%; Inhibition [5]: 31%; inhibition at 2200 µg/mL [6]: 70%; IC50 [7]: 600 µg/mL; inhibition at 275 µg/mL [8]: 38% |
| CC(C)=CCC/C(C)=C/CC/C(C)=C/CCC1(C)CCc2cc(O)ccc2O1 (racemic) | 63 | 56 | – |
